The subject of this assay is PC3 cells. Briefly: NAMPT Cell Proliferation Assay (Cell Titer Glo; also performed in the presence of 0.3 mM nicotinamide mononucleotide). As to conditions: Homo sapiens, PC-3, 120 h, 5 days incubation, cell viability by Cell Titer Glo. It is filed as cell-based. The protocol: NAMPT Cell Proliferation Assay
PC3 cells were seeded in 96-well black plates (Corning #3904) at 500 cells/well in 90 μl of RPMI media containing 10% heat-inactivated FBS and incubated overnight at 37° C. and 5% CO2 to allow cells to attach to wells. The following day, test compounds were serially diluted in neat DMSO to 1000× final concentrations prior to dilution with RPMI media to 10× and 1% DMSO. Ten μL of the 10× compounds were then transferred to wells containing cells to produce a dose response of 10-fold dilutions from 10 μM to 1×10^−5 μM. Cells were incubated for 5 days at 37° C. and 5% CO2, then cell viability was measured using Cell Titer Glo reagent (Promega #G7571). Percent inhibition values were calculated and fitted to a sigmoidal dose response curves using Assay Explorer software to determine IC50s.

pIC50: −log10 of the molar value. A value given as a limit tells only on which side of the number the result lay.

Regarding `Cn1nc(C(=O)O)cc1-c1ccc(NC(=O)C2CN(c3cccnn3)C2)cc1` [Example 911, 1-methyl-5-[4-({[1-(pyridazin-3-yl)azetidin-3-yl]carbonyl}amino)phenyl]-1H-pyrazole-3-carboxylic acid], the pIC50 is below 5.00.
The figure for `CCOC(=O)c1cc(-c2ccc(NC(=O)C3CN(c4cccnn4)C3)cc2)n(C)n1` [Example 912, ethyl 1-methyl-5-[4-({[1-(pyridazin-3-yl)azetidin-3-yl]carbonyl}amino)phenyl]-1H-pyrazole-3-carboxylate] is 7.19; for `CCOC(=O)c1cc(-c2ccc(NC(=O)C3CN(c4cccnn4)C3)cc2)n(-c2ccccc2)n1` [Example 913, ethyl 1-phenyl-5-[4-({[1-(pyridazin-3-yl)azetidin-3-yl]carbonyl}amino)phenyl]-1H-pyrazole-3-carboxylate] it is 7.18.
The figure for `O=C(Nc1ccc(C2CCN(C(=O)c3ccccc3F)CC2)nc1)C1CN(c2cccnn2)C1` [Example 914, N-{6-[1-(2-fluorobenzoyl)piperidin-4-yl]pyridin-3-yl}-1-(pyridazin-3-yl)azetidine-3-carboxamide] is 8.57; for `Cc1ccc(N2CC(C(=O)Nc3ccc(O[C@@H]4CCN(C(=O)CC(C)C)C4)cc3)C2)nn1` [Example 915, N-(4-{[(3R)-1-(3-methylbutanoyl)pyrrolidin-3-yl]oxy}phenyl)-1-(6-methylpyridazin-3-yl)azetidine-3-carboxamide] it is 6.86.
The figure for `Cc1ccc(N2CC(C(=O)Nc3ccc(O[C@@H]4CCN(C(=O)C(C)C)C4)cc3)C2)nn1` [Example 916, N-(4-{[(3R)-1-(2-methylpropanoyl)pyrrolidin-3-yl]oxy}phenyl)-1-(6-methylpyridazin-3-yl)azetidine-3-carboxamide] is 6.19; for `Cc1ccc(N2CC(C(=O)Nc3ccc(O[C@@H]4CCN(C(=O)c5ccc(F)cc5F)C4)cc3)C2)nn1` [Example 917, N-(4-{[(3R)-1-(2,4-difluorobenzoyl)pyrrolidin-3-yl]oxy}phenyl)-1-(6-methylpyridazin-3-yl)azetidine-3-carboxamide] it is 7.00.
Regarding `Cc1ccc(N2CC(C(=O)Nc3ccc(O[C@@H]4CCN(C(=O)c5cscn5)C4)cc3)C2)nn1` [Example 918, 1-(6-methylpyridazin-3-yl)-N-(4-{[(3R)-1-(1,3-thiazol-4-ylcarbonyl)pyrrolidin-3-yl]oxy}phenyl)azetidine-3-carboxamide], the pIC50 is 6.14.
Then `O=C(Nc1ccc(C2CCN(C(=O)CCC(F)(F)F)CC2)nc1)C1CN(c2cccnn2)C1` [Example 919, 1-(pyridazin-3-yl)-N-{6-[1-(4,4,4-trifluorobutanoyl)piperidin-4-yl]pyridin-3-yl}azetidine-3-carboxamide], with 7.28; and `CC(C)(C)CC(=O)N1CCC(c2ccc(NC(=O)C3CN(c4cccnn4)C3)cn2)CC1` [Example 920, N-{6-[1-(3,3-dimethylbutanoyl)piperidin-4-yl]pyridin-3-yl}-1-(pyridazin-3-yl)azetidine-3-carboxamide], with 8.27; and `Cc1ccnnc1N1CC[C@H](C(=O)Nc2ccc(C3CCN(C(=O)c4ccccc4)CC3)cc2)C1` [Example 921, (3S)—N-[4-(1-benzoylpiperidin-4-yl)phenyl]-1-(4-methylpyridazin-3-yl)pyrrolidine-3-carboxamide], with 8.54.
Then `Cc1ccnnc1N1CC[C@H](C(=O)Nc2ccc(C3CCN(C(=O)C(C)(C)C)CC3)cc2)C1` [Example 922, (3S)—N-{4-[1-(2,2-dimethylpropanoyl)piperidin-4-yl]phenyl}-1-(4-methylpyridazin-3-yl)pyrrolidine-3-carboxamide], with 8.47; and `O=C(Nc1ccc(-c2cc(C(F)(F)F)nn2-c2ccccc2)cc1)C1CN(c2cccnn2)C1` [Example 923, N-{4-[1-phenyl-3-(trifluoromethyl)-1H-pyrazol-5-yl]phenyl}-1-(pyridazin-3-yl)azetidine-3-carboxamide], with 7.16.
`CC(C)(C)Cn1cc(-c2ccc(NC(=O)C3CN(c4cccnn4)C3)cn2)cn1` [Example 924, N-{6-[1-(2,2-dimethylpropyl)-1H-pyrazol-4-yl]pyridin-3-yl}-1-(pyridazin-3-yl)azetidine-3-carboxamide]: the negative-log IC50 (pIC50) is 8.93.
Consider `CC(C)(C)OC(=O)N1CCC(n2cc(NC(=O)C3CN(c4cccnn4)C3)cn2)CC1` [Example 925, tert-butyl 4-[4-({[1-(pyridazin-3-yl)azetidin-3-yl]carbonyl}amino)-1H-pyrazol-1-yl]piperidine-1-carboxylate], for which the pIC50 was 8.00.
Then `CC1(Cn2cc(-c3ccc(NC(=O)C4CN(c5cccnn5)C4)cn3)cn2)CCNCC1` [Example 926, N-(6-{1-[(4-methylpiperidin-4-yl)methyl]-1H-pyrazol-4-yl}pyridin-3-yl)-1-(pyridazin-3-yl)azetidine-3-carboxamide], with 6.22; and `O=C(Nc1ccc(CC2CCN(C(=O)c3cncs3)CC2)cc1)C1CN(c2cccnn2)C1` [Example 927, 1-(pyridazin-3-yl)-N-(4-{[1-(1,3-thiazol-5-ylcarbonyl)piperidin-4-yl]methyl}phenyl)azetidine-3-carboxamide], with 8.41.
The figure for `O=C(Nc1ccc(CC2CCN(C(=O)C3CCCC3)CC2)cc1)C1CN(c2cccnn2)C1` [Example 928, N-(4-{[1-(cyclopentylcarbonyl)piperidin-4-yl]methyl}phenyl)-1-(pyridazin-3-yl)azetidine-3-carboxamide] is 8.59; for `O=C(Nc1ccc(CC2CCN(C(=O)c3cn[nH]c3)CC2)cc1)C1CN(c2cccnn2)C1` [Example 929, N-(4-{[1-(1H-pyrazol-4-ylcarbonyl)piperidin-4-yl]methyl}phenyl)-1-(pyridazin-3-yl)azetidine-3-carboxamide] it is 7.57.
The figure for `CCC(C)(C)C(=O)N1CCC(Cc2ccc(NC(=O)C3CN(c4cccnn4)C3)cc2)CC1` [Example 930, N-(4-{[1-(2,2-dimethylbutanoyl)piperidin-4-yl]methyl}phenyl)-1-(pyridazin-3-yl)azetidine-3-carboxamide] is 8.57.
As for `CC1CC1C(=O)N1CCC(Cc2ccc(NC(=O)C3CN(c4cccnn4)C3)cc2)CC1` (stereo not drawn) [Example 931, N-[4-({1-[(2-methylcyclopropyl)carbonyl]piperidin-4-yl}methyl)phenyl]-1-(pyridazin-3-yl)azetidine-3-carboxamide], the negative-log IC50 (pIC50) was 8.50.
Then `CSCC(=O)N1CCC(Cc2ccc(NC(=O)C3CN(c4cccnn4)C3)cc2)CC1` [Example 932, N-[4-({1-[(methylsulfanyl)acetyl]piperidin-4-yl}methyl)phenyl]-1-(pyridazin-3-yl)azetidine-3-carboxamide], with 8.24; and `O=C(Nc1ccc(CC2CCN(C(=O)CC3C[C@@H]4CC[C@H]3C4)CC2)cc1)C1CN(c2cccnn2)C1` (stereo partly drawn) [Example 933, N-[4-({1-[(1S,4R)-bicyclo[2.2.1]hept-2-ylacetyl]piperidin-4-yl}methyl)phenyl]-1-(pyridazin-3-yl)azetidine-3-carboxamide], with 8.62.
The figure for `CCCC(C)C(=O)N1CCC(Cc2ccc(NC(=O)C3CN(c4cccnn4)C3)cc2)CC1` (stereo not drawn) [Example 934, N-(4-{[1-(2-methylpentanoyl)piperidin-4-yl]methyl}phenyl)-1-(pyridazin-3-yl)azetidine-3-carboxamide] is 8.61.

The values above are taken from US8975398B2, “NAMPT inhibitors” (AbbVie Inc., priority 2012, dated 2015).
